ChEMBL document CHEMBL3860095, “1H-1,2,3-Triazolyl-substituted 1,3,4-oxadiazole derivatives containing structural features of ibuprofen/naproxen: Their synthesis and antibacterial evaluation” (2016)

Experiments:
Assay type in all cases: functional
Details in all cases: read-out: DIZ
Staphylococcus aureus [1] = assay: Antibacterial activity against clinical isolates of Staphylococcus aureus at 0.5 mg after overnight incubation by agar well diffusion method
Bacillus subtilis = assay: Antibacterial activity against clinical isolates of Bacillus subtilis at 0.5 mg after overnight incubation by agar well diffusion method
[2] = tested on: Staphylococcus epidermidis; assay: Antibacterial activity against clinical isolates of Staphylococcus epidermidis at 0.5 mg after overnight incubation by agar well diffusion method
Pseudomonas aeruginosa [3] = assay: Antibacterial activity against clinical isolates of Pseudomonas aeruginosa at 0.5 mg after overnight incubation by agar well diffusion method
Escherichia coli [4] = assay: Antibacterial activity against clinical isolates of Escherichia coli at 0.5 mg after overnight incubation by agar well diffusion method
Klebsiella pneumoniae [5] = assay: Antibacterial activity against clinical isolates of Klebsiella pneumoniae at 0.5 mg after overnight incubation by agar well diffusion method
Staphylococcus aureus [6] = assay: Antibacterial activity against clinical isolates of Staphylococcus aureus at 0.05 mg after overnight incubation by agar well diffusion method
Pseudomonas aeruginosa [7] = assay: Antibacterial activity against clinical isolates of Pseudomonas aeruginosa at 0.05 mg after overnight incubation by agar well diffusion method
Escherichia coli [8] = assay: Antibacterial activity against clinical isolates of Escherichia coli at 0.05 mg after overnight incubation by agar well diffusion method
Klebsiella pneumoniae [9] = assay: Antibacterial activity against clinical isolates of Klebsiella pneumoniae at 0.05 mg after overnight incubation by agar well diffusion method

COc1ccc2cc([C@H](C)c3nnc(SCc4cn(CC(=O)Nc5c(C)cccc5C)nn4)o3)ccc2c1
zone of inhibition at 500 µg/disc (Staphylococcus aureus [1]): 13 mm
zone of inhibition at 500 µg/disc (Bacillus subtilis): 15 mm
zone of inhibition at 500 µg/disc [2]: 12 mm
zone of inhibition at 500 µg/disc (Pseudomonas aeruginosa [3]): 11 mm
zone of inhibition at 500 µg/disc (Escherichia coli [4]): 11 mm
zone of inhibition at 500 µg/disc (Klebsiella pneumoniae [5]): 9 mm

COc1ccc2cc([C@H](C)c3nnc(SCc4cn(-c5ccccc5)nn4)o3)ccc2c1
zone of inhibition at 500 µg/disc (Staphylococcus aureus [1]): 14 mm
zone of inhibition at 500 µg/disc (Bacillus subtilis): 14 mm
zone of inhibition at 500 µg/disc [2]: 15 mm
zone of inhibition at 500 µg/disc (Pseudomonas aeruginosa [3]): 12 mm
zone of inhibition at 500 µg/disc (Escherichia coli [4]): 13 mm
zone of inhibition at 500 µg/disc (Klebsiella pneumoniae [5]): 12 mm

COc1ccc2cc([C@H](C)c3nnc(SCc4cn(CC(=O)Nc5cccc(Cl)c5)nn4)o3)ccc2c1
zone of inhibition at 500 µg/disc (Staphylococcus aureus [1]): 12 mm
zone of inhibition at 500 µg/disc (Bacillus subtilis): 14 mm
zone of inhibition at 500 µg/disc [2]: 11 mm
zone of inhibition at 500 µg/disc (Pseudomonas aeruginosa [3]): 13 mm
zone of inhibition at 500 µg/disc (Escherichia coli [4]): 12 mm
zone of inhibition at 500 µg/disc (Klebsiella pneumoniae [5]): 10 mm

COc1ccc2cc([C@H](C)c3nnc(SCc4cn(CC(=O)Nc5ccccc5Cl)nn4)o3)ccc2c1
zone of inhibition at 500 µg/disc (Staphylococcus aureus [1]): 15 mm
zone of inhibition at 500 µg/disc (Bacillus subtilis): 15 mm
zone of inhibition at 500 µg/disc [2]: 16 mm
zone of inhibition at 500 µg/disc (Pseudomonas aeruginosa [3]): 14 mm
zone of inhibition at 500 µg/disc (Escherichia coli [4]): 13 mm
zone of inhibition at 500 µg/disc (Klebsiella pneumoniae [5]): 14 mm

COc1ccc2cc([C@H](C)c3nnc(SCc4cn(CC(=O)Nc5ccccc5C)nn4)o3)ccc2c1
zone of inhibition at 500 µg/disc (Staphylococcus aureus [1]): 13 mm
zone of inhibition at 500 µg/disc (Bacillus subtilis): 12 mm
zone of inhibition at 500 µg/disc [2]: 15 mm
zone of inhibition at 500 µg/disc (Pseudomonas aeruginosa [3]): 14 mm
zone of inhibition at 500 µg/disc (Escherichia coli [4]): 10 mm
zone of inhibition at 500 µg/disc (Klebsiella pneumoniae [5]): 13 mm

CC(C)Cc1ccc(C(C)c2nnc(SCc3cn(CC(=O)Nc4cccc(Cl)c4)nn3)o2)cc1 (racemic)
zone of inhibition at 500 µg/disc (Staphylococcus aureus [1]): 14 mm
zone of inhibition at 500 µg/disc (Bacillus subtilis): 12 mm
zone of inhibition at 500 µg/disc [2]: 13 mm
zone of inhibition at 500 µg/disc (Pseudomonas aeruginosa [3]): 15 mm
zone of inhibition at 500 µg/disc (Escherichia coli [4]): 12 mm
zone of inhibition at 500 µg/disc (Klebsiella pneumoniae [5]): 11 mm

Cc1ccccc1NC(=O)Cn1cc(CSc2nnc(C(C)c3ccc(CC(C)C)cc3)o2)nn1 (racemic)
zone of inhibition at 500 µg/disc (Staphylococcus aureus [1]): 13 mm
zone of inhibition at 500 µg/disc (Bacillus subtilis): 11 mm
zone of inhibition at 500 µg/disc [2]: 13 mm
zone of inhibition at 500 µg/disc (Pseudomonas aeruginosa [3]): 14 mm
zone of inhibition at 500 µg/disc (Escherichia coli [4]): 13 mm
zone of inhibition at 500 µg/disc (Klebsiella pneumoniae [5]): 13 mm

CC(C)Cc1ccc(C(C)c2nnc(SCc3cn(-c4ccccc4)nn3)o2)cc1 (racemic)
zone of inhibition at 500 µg/disc (Staphylococcus aureus [1]): 10 mm
zone of inhibition at 500 µg/disc (Bacillus subtilis): 11 mm
zone of inhibition at 500 µg/disc [2]: 9 mm
zone of inhibition at 500 µg/disc (Pseudomonas aeruginosa [3]): 11 mm
zone of inhibition at 500 µg/disc (Escherichia coli [4]): 10 mm
zone of inhibition at 500 µg/disc (Klebsiella pneumoniae [5]): 10 mm

CC(C)Cc1ccc(C(C)c2nnc(SCc3cn(CC(=O)Nc4ccccc4[N+](=O)[O-])nn3)o2)cc1 (racemic)
zone of inhibition at 500 µg/disc (Staphylococcus aureus [1]): 11 mm
zone of inhibition at 500 µg/disc (Bacillus subtilis): 10 mm
zone of inhibition at 500 µg/disc [2]: 10 mm
zone of inhibition at 500 µg/disc (Pseudomonas aeruginosa [3]): 9 mm
zone of inhibition at 500 µg/disc (Escherichia coli [4]): 11 mm
zone of inhibition at 500 µg/disc (Klebsiella pneumoniae [5]): 9 mm

CC(C)Cc1ccc(C(C)c2nnc(SCc3cn(CC(=O)Nc4ccc(Cl)cc4)nn3)o2)cc1 (racemic)
zone of inhibition at 500 µg/disc (Staphylococcus aureus [1]): 11 mm
zone of inhibition at 500 µg/disc (Bacillus subtilis): 16 mm
zone of inhibition at 500 µg/disc [2]: 15 mm
zone of inhibition at 500 µg/disc (Pseudomonas aeruginosa [3]): 14 mm
zone of inhibition at 500 µg/disc (Escherichia coli [4]): 15 mm
zone of inhibition at 500 µg/disc (Klebsiella pneumoniae [5]): 15 mm

NCC[C@H](O)C(=O)N[C@@H]1C[C@H](N)[C@@H](O[C@H]2O[C@H](CN)[C@@H](O)[C@H](O)[C@H]2O)[C@H](O)[C@H]1O[C@H]1O[C@H](CO)[C@@H](O)[C@H](N)[C@H]1O [AMIKACIN]
zone of inhibition at 50 µg/disc (Staphylococcus aureus [6]): 23 mm
zone of inhibition at 50 µg/disc (Pseudomonas aeruginosa [7]): 22 mm
zone of inhibition at 50 µg/disc (Escherichia coli [8]): 20 mm
zone of inhibition at 50 µg/disc (Klebsiella pneumoniae [9]): 23 mm
